Test results: US20240216344A1, “THIAZOLIDINEDIONE ANALOGS FOR THE TREATMENT OF NAFLD AND METABOLIC DISEASES” (Cirius Therapeutics, Inc., priority 2019, published 2024)

Experiments:
[1] = test system: patients with NASH; assay: Meta-analysis of 17 NASH clinical trials: change from baseline in histological components and endpoint counts; format: in vivo, human; conditions: EMMINENCE trial
Protocol: (§1) Meta-regressions of NASH clinical trials were performed to examine associations between biomarker and histological changes within treatment groups, and to additionally examine associations between treatment effects on biomarkers and on liver histology. Trials that met the following criteria were included: • Randomized controlled clinical trial • Paired biopsies performed at baseline and follow-up, scored using the NASH CRN system.
(§2) • Published results at baseline, follow-up, or changes from baseline for any the following liver injury markers or biomarkers: alanine aminotransferase (ALT), aspartate aminotransferase (AST), alkaline phosphatase, hemoglobin A1c (HbA1c), gamma-glutamyltransferase (GGT), insulin, cytokeratin-18 (CK-18), or Enhanced Liver Fibrosis (ELF) score. Variables selected were based on variables whose change was commonly reported in multiple studies. • Changes in histological scores for ballooning, inflammation, steatosis, and fibrosis, or the pre-determined endpoints of NASH resolution without worsening fibrosis or improvement in fibrosis with no worsening of NASH.
(§3) All results from a search of PubMed for the keywords (“nonalcoholic steatohepatitis” or “non-alcoholic steatohepatitis”) and (“clinical trial” or “randomized”) and filtered for “Clinical Trial” were reviewed. EudraCT and ClinicalTrials.gov were searched for the keyword “nonalcoholic steatohepatitis” with results further filtered for phase 2 or 3, interventional, terminated or completed trials. These three sources returned 265 (PubMed), 153 (ClinicalTrials.gov), and 56 (EudraCT) results, which were each individually reviewed for inclusion in the analysis. Data extracted by one analyst from each source that included means and SDs at baseline, end of study, and changes from baseline to end of study for continuous variables were verified and corrected by a second analyst. Where SDs were not available, any provided estimate of variation was used to derive the SD where possible; a plot-digitizer program was used where data were presented in figures only. Data for dichotomous endpoints were extracted as the number of subjects with the event and corresponding sample size.
All studies included in the current meta-analysis used the NASH CRN histological scoring system for the scoring of the liver biopsy components. The two dichotomous endpoints considered were based on the currently approvable endpoints per FDA guidelines: NASH resolution without worsening of fibrosis, and fibrosis improvement without worsening of NASH.
(§4) Random effects weighted least squares meta-regressions with inverse variance weighting were used to examine the association of changes in ALT, AST, CK-18, HbA1c, fasting insulin levels, ELF, alkaline phosphatase and GGT with biopsy outcomes. CK-18[M30] was measured in all studies except EMMINENCE where CK-18[M651 was reported. These associations were assessed at an individual cohort level (within treatment group), as well as based on the treatment effect. Percent change from baseline in liver injury makers and biomarkers was used as the predictor when examining the associations in the individual cohorts with outcomes while the treatment ratio, the ratio of active to placebo with respect to the relative changes from baseline, was used as the predictor when assessing the association with the treatment effect on outcomes. Standardized mean changes (mean/SD) or standardized mean treatment differences (mean difference/pooled SD) were used for continuous outcomes and Freeman-Tukey double arcsine transformed proportions or log odds ratios were used for dichotomous outcomes. Meta-regression results were computed using the metafor package available in R. P-values <0.05 were considered statistically significant.

[2] = test system: patients with NASH; assay: Meta-analysis of 17 NASH clinical trials: change from baseline in LFTs and biomarkers by study arm, composite outcome; format: in vivo, human; conditions: for % Change from Baseline ALT / % Change from Baseline AST / % Change from Baseline Alk Phos / % Change from Baseline CK-18 / % Change from Baseline ELF / % Change from Baseline GGT / % Change from Baseline HbA1c / % Change from Baseline Insulin: EMMINENCE, follow-up 12 months
Protocol: as §1, §2, §3, §4
From the meta-regression results, ranks for the association with responses and treatment effects for each histologic outcome (changes in ballooning, inflammation, steatosis, and fibrosis; NASH resolution without worsening of fibrosis, and fibrosis improvement without worsening of NAS) were assigned across seven biomarkers (AST, GGT, HbA1c, insulin, CK-18, ELF, and alkaline phosphatase) for both the slope and the mediator p-value (ranks 1-7, with 7 assigned to the biomarker with the greatest slope or lowest p-value). An average rank across all outcomes was then assigned to each biomarker. […]

[3] = test system: 3-dimensional bioprinted human liver organoids; assay: 3-dimensional bioprinted human liver organoids, fibrosis by collagen staining; format: cell-based; conditions: added to the tissue medium
[4] = test system: cell functions and key regulatory proteins; assay: Impact of MSDC-0602K vs overnutrition on cell functions and key regulatory proteins (Table 1)

## COc1cccc(C(=O)COc2ccc(CC3SC(=O)NC3=O)cc2)c1 (stereo not shown) [MSDC-0602K]
[1]; MSDC-0602K 62.5 mg
  Change from Baseline, mean: Ballooning: −0.36
  Change from Baseline, mean: Fibrosis: 0.06
  Change from Baseline, mean: Inflammation: −0.08
  Change from Baseline, mean: Steatosis: −0.57
  Fibrosis Improvement: 20/99
  NASH Resolution: 17/99
[1]; MSDC-0602K 125 mg
  Change from Baseline, mean: Ballooning: −0.42
  Change from Baseline, mean: Fibrosis: −0.12
  Change from Baseline, mean: Inflammation: −0.22
  Change from Baseline, mean: Steatosis: −0.51
  Fibrosis Improvement: 23/98
  NASH Resolution: 23/98
[1]; MSDC-0602K 250 mg
  Change from Baseline, mean: Ballooning: −0.38
  Change from Baseline, mean: Fibrosis: −0.06
  Change from Baseline, mean: Inflammation: −0.12
  Change from Baseline, mean: Steatosis: −0.67
  Fibrosis Improvement: 25/101
  NASH Resolution: 27/101
[2]; 17 NASH clinical trials
  treatment effect on the surrogate endpoint (weighted average of changes in AST, CK-18, HbA1c): largest treatment effects
[2]; 62.5 mg
  % Change from Baseline ALT: −15.71%
  % Change from Baseline AST: −8.08%
  % Change from Baseline Alk Phos: −6.28%
  % Change from Baseline CK-18: −7.08%
  % Change from Baseline ELF: 1.16%
  % Change from Baseline GGT: −17.56%
  % Change from Baseline HbA1c: −4.16%
  % Change from Baseline Insulin: −10.85%
[2]; 125 mg
  % Change from Baseline ALT: −28.13%
  % Change from Baseline AST: −21.90%
  % Change from Baseline Alk Phos: −10.70%
  % Change from Baseline CK-18: −22.13%
  % Change from Baseline ELF: 0.09%
  % Change from Baseline GGT: −13.47%
  % Change from Baseline HbA1c: −3.79%
  % Change from Baseline Insulin: −30.08%
[2]; 250 mg
  % Change from Baseline ALT: −23.82%
  % Change from Baseline AST: −11.81%
  % Change from Baseline Alk Phos: −18.74%
  % Change from Baseline CK-18: −8.61%
  % Change from Baseline ELF: 0.89%
  % Change from Baseline GGT: −28.14%
  % Change from Baseline HbA1c: −3.89%
  % Change from Baseline Insulin: −30.62%
[3]
  effects of the nutrients (stellate cell activation, fibrosis by collagen staining): both prevented and reversed
[4]
  Fatty acid oxidation (burning fat): Increased
  HIF1α: Decreased
  Inflammation (ballooning due to injury): Decreased
  Insulin sensitivity (cellular response to insulin): Increased
  PPARγ, PPARα: Increased
  SREBP: Decreased
  de novo lipid synthesis (making new fat): Decreased
  mTORC1: Decreased
